Drawing on US12435087B2, “Modulators of DCN-1 and methods of use thereof” (Cellarity, Inc., priority 2023, dated 2025), this text covers IC50 for 27 compounds.

The target in the test is DCN1 (DCUND1) protein PONY domain (Homo sapiens (Human), UniProt Q96GG9). As to the kind of experiment: TR-FRET assay (binding to DCN-1, displacement of FAM-labeled probe).
Excerpt: (§1) The TR-FRET assay was designed following the Scott et al. protocol (Scott et al., Nat Chem Biol. 2017 August; 13(8): 850-857. doi:10.1038/nchembio.2386). The recombinant form of the DCN1 (DCUND1) protein PONY domain was produced using an E. coli expression system at Viva Biotech (China). The DCN1 protein was biotinylated (EZ sulfo-NHS-LC-biotin; Thermofisher) for labeling with streptavidin terbium (Tb) cryptate in the reaction. The probe was changed to a non-covalent DCN1 inhibitor labeled with carboxyfluorescein (FAM; Zhou et al., Nat Commun. 2017; 8: 1150. doi: 10.1038/s41467-017-01243-7). Buffer conditions were modified to enhance protein stability by exchanging Tween20 for TritonX and increasing NaCl to 200 mM. The compounds were screened against 5 nM DCN1 and 20 nM FAM-probe or 0.31 nM DCN1 and 900 nM total probe (100 nM FAM-labeled plus 800 nM unlabeled). The TR-FRET ratio between Tb-DCN1 and the FAM-labeled probe was measured in a 384-well opti-plate (Perkin Elmer) using a plate reader (BMG) at 1, 5, and 24 hrs after treatment with compound (final DMSO concentration of 0.1%). The ratio was normalized to the high (DCN1 and FAM-probe) and low (DCN1 and no probe) controls for a readout of % activity (=100*(x−low)/(high−low).
A TR-FRET assay was performed to evaluate the ability of the compounds to bind the DCN-1 protein.
as §1, with “850-857. Doi: 10.1038/nchembio.2386).” for “850-857. doi:10.1038/nchembio.2386).”, “the DCNI” for “the DCN1”, “1150. Doi:” for “1150. doi:”, “0.1%).” for “0.1%). The ratio was normalized to the high (DCN1 and FAM-probe) and low (DCN1 and no probe) controls for a readout of % activity (=100*(x−low)/(high−low).”
For orientation: TR-FRET usually uses a lanthanide donor and a delayed reading to cut background.

The mark [1] stands for this setting: 24 hr after treatment with compound, read-out: TR FRET IC50 24 hr.
Where [2] appears, read: TR FRET IC50 1 hr (nM), 1 hr after treatment with compound.

Read-outs that look alike come from different tables or passages of the source. Where only a bound is given, the exact number is not on record here.

Chain of DCN1 (DCUND1) protein PONY domain (Q96GG9 60-248): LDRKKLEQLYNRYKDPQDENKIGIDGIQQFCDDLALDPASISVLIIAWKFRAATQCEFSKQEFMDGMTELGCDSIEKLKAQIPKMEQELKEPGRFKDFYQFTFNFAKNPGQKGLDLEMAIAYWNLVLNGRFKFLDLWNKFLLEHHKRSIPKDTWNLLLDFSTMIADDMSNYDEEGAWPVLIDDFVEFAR

The term IC50 denotes the concentration at which inhibition is half-maximal. Consider `CCN1C(=O)[C@@H](NC(=O)c2cccc(C(F)(F)F)c2)[C@H](c2cccc(NC(=O)C3=CCCN(C)C3)c2)c2cnn(-c3ccccc3)c21` (racemic) [Compound I-58], for which the IC50 is not above 200 nM under setting [1] and 1000 to 3000 nM under setting [2].

Regarding `CCN1C(=O)[C@@H](NC(=O)c2cccc(C(F)(F)F)c2)[C@H](c2ccccc2CNC(=O)/C=C/C(=O)OC)c2cnn(-c3ccccc3)c21` (racemic) [Compound I-67], the half-maximal inhibitory concentration (IC50) was in the range of 1000 to 3000 nM under setting [1] and 1000 to 3000 nM under setting [2].

Turning to `C=C(CO)C(=O)Nc1cccc([C@@H]2c3c(C)nn(-c4ccccc4)c3N(CC)C(=O)[C@H]2NC(=O)c2cccc(C(F)(F)F)c2)c1` (racemic) [Compound I-71], the IC50 under setting [1] lay in the range of 200 to 1000 nM and the IC50 under setting [2] fell in the range of 1000 to 3000 nM.

For `C=CC(=O)N(C)c1cccc([C@H]2c3cnn(-c4ccccc4)c3N(CC)C(=O)[C@@H]2NC(=O)c2cccc(C(F)(F)F)c2)c1` (racemic) [Compound I-74], the half-inhibitory concentration (IC50) reads like this: under setting [1], 1000 to 3000 nM; under setting [2], 1000 to 3000 nM.

Regarding `CCN1C(=O)[C@@H](NC(=O)c2cccc(C(F)(F)F)c2)[C@H](c2cc(NC(=O)/C=C/CN(C)C)ccc2F)c2cnn(-c3ccccc3)c21` (racemic) [Compound I-79], the IC50 is, setting by setting: under setting [1], 200 to 1000 nM; under setting [2], 1000 to 3000 nM.

For `CCN1C(=O)[C@@H](NC(=O)c2cccc(C(F)(F)F)c2)[C@@H](c2cc(F)cc(NC(=O)/C=C/CN(C)C)c2)c2cnn(-c3ccccc3)c21` (racemic) [Compound I-85], the IC50 under setting [1] was 1000 to 3000 nM and the IC50 under setting [2] was in the range of 1000 to 3000 nM.

Regarding `C=C(C)S(=O)(=O)Nc1cccc([C@H]2c3c(C)nn(-c4ccccc4)c3N(CC)C(=O)[C@@H]2NC(=O)c2cccc(C(F)(F)F)c2)c1` (racemic) [Compound I-88], the concentration for half-maximal inhibition (IC50) under setting [1] fell in the range of 1000 to 3000 nM and the concentration for half-maximal inhibition (IC50) under setting [2] lay in the range of 1000 to 3000 nM.

As to `CCN1C(=O)[C@H](NC(=O)c2cccc(C(F)(F)F)c2)[C@@H](c2ccccc2-n2sccc2=O)c2cnn(-c3ccccc3)c21` (racemic) [Compound I-89, ˜{N}—[˜{rac}-(4˜{S},5˜{R})-7-ethyl-6-oxo-4-[2-(3-oxoisothiazol-2-yl)phenyl]-1-phenyl-4,5-dihydropyrazolo[3,4-b]pyridin-5-yl]-3-(trifluoromethyl)benzamide], the concentration for half-maximal inhibition (IC50) by setting is: under setting [1], 1000 to 3000 nM; under setting [2], 1000 to 3000 nM.

Take `CCN1C(=O)[C@H](NC(=O)c2cccc(C(F)(F)F)c2)[C@@H](c2ccccc2N(C)C#N)c2cnn(-c3ccccc3)c21` (racemic) [Compound I-90, ˜{N}—[˜{rac}-(4˜{S},5˜{R})-4-[2-[cyano(methyl)amino]phenyl]-7-ethyl-6-oxo-1-phenyl-4,5-dihydropyrazolo[3,4-b]pyridin-5-yl]-3-(trifluoromethyl)benzamide]: the IC50 was in the range of 1000 to 3000 nM under setting [1] and 1000 to 3000 nM under setting [2].

Take `Cc1nn(-c2ccccc2)c2c1[C@H](c1cccc(NC(=O)C3=CCC3)c1)[C@@H](NC(=O)c1cccc(C(F)(F)F)c1)C(=O)N2CCO` (racemic) [Compound I-92, rac-N-((4R,5S)-4-(3-(cyclobut-1-ene-1-carboxamido)phenyl)-7-(2-hydroxyethyl)-3-methyl-6-oxo-1-phenyl-4,5,6,7-tetrahydro-1H-pyrazolo[3,4-b]pyridin-5-yl)-3-(trifluoromethyl)benzamide]: the IC50 under setting [1] fell in the range of 1000 to 3000 nM and the half-inhibitory concentration (IC50) under setting [2] is 1000 to 3000 nM.

With `C=CC(=O)N(C)c1ccccc1[C@H]1c2cnn(-c3ccccc3)c2N(CC)C(=O)[C@@H]1NC(=O)c1cccc(C(F)(F)F)c1` (racemic) [Compound I-97, ˜{N}—[˜{rac}-(4˜{S},5˜{R})-7-ethyl-4-[2-[methyl(prop-2-enoyl)amino]phenyl]-6-oxo-1-phenyl-4,5-dihydropyrazolo[3,4-b]pyridin-5-yl]-3-(trifluoromethyl)benzamide], the IC50 reads like this: under setting [1], 1000 to 3000 nM; under setting [2], 1000 to 3000 nM.

`CC#CC(=O)N(C)c1ccccc1[C@H]1c2cnn(-c3ccccc3)c2N(CC)C(=O)[C@@H]1NC(=O)c1cccc(C(F)(F)F)c1` (racemic) [Compound I-98, ˜{N}—[˜{rac}-(4˜{S},5˜{R})-4-[2-[but-2-ynoyl(methyl)amino]phenyl]-7-ethyl-6-oxo-1-phenyl-4,5-dihydropyrazolo[3,4-b]pyridin-5-yl]-3-(trifluoromethyl)benzamide]: the IC50 under setting [1] was 1000 to 3000 nM and the IC50 under setting [2] lay within 1000 to 3000 nM.

With `CCN1C(=O)[C@H](NC(=O)c2cccc(C(F)(F)F)c2)[C@@H](c2cccc(N(C)C(=O)/C=C/C(F)(F)F)c2)c2cnn(-c3ccccc3)c21` (racemic) [Compound I-99], the IC50 under setting [1] is 1000 to 3000 nM and the 50% inhibitory concentration (IC50) under setting [2] fell in the range of 1000 to 3000 nM.

On to `CCN1C(=O)[C@@H](NC(=O)c2cccc(C(F)(F)F)c2)[C@H](c2ccccc2CNC(=O)C2=CCC2)c2cnn(-c3ccccc3)c21` (racemic) [Compound I-101], for which the IC50 runs as follows: under setting [1], 1000 to 3000 nM; under setting [2], 1000 to 3000 nM.

`CCN1C(=O)[C@@H](NC(=O)c2cccc(C(F)(F)F)c2)[C@H](c2cccc(CN(C)C#N)c2)c2cnn(-c3ccccc3)c21` (racemic) [Compound I-104]: the 50% inhibitory concentration (IC50) was 1000 to 3000 nM under setting [1] and 1000 to 3000 nM under setting [2].

For the compound `CCN1C(=O)[C@@H](NC(=O)c2cccc(C(F)(F)F)c2)[C@@H](c2cc(NC(=O)/C=C/CN(C)C)ccc2F)c2cnn(-c3ccccc3)c21` (racemic) [Compound I-107], the IC50 fell in the range of 1000 to 3000 nM under setting [1] and 1000 to 3000 nM under setting [2].

Turning to `C=CC(=O)NCc1cccc([C@@H]2c3cnn(-c4ccccc4)c3N(CC)C(=O)[C@H]2NC(=O)c2cccc(C(F)(F)F)c2)c1` (racemic) [Compound I-111], the IC50 fell in the range of 1000 to 3000 nM under setting [1] and 1000 to 3000 nM under setting [2].

Regarding `C=CC(=O)NCc1ccccc1[C@@H]1c2cnn(-c3ccccc3)c2N(CC)C(=O)[C@H]1NC(=O)c1cccc(C(F)(F)F)c1` (racemic) [Compound I-113], the 50% inhibitory concentration (IC50) runs as follows: under setting [1], 1000 to 3000 nM; under setting [2], 1000 to 3000 nM.

Regarding `CCN1C(=O)[C@@H](NC(=O)c2cccc(C(F)(F)F)c2)[C@H](c2cccc(NC(=O)C3=C(C(=O)OC)CCC3)c2)c2c(C)nn(-c3ccccc3)c21` (racemic) [Compound I-117], the IC50 is 1000 to 3000 nM under setting [1] and 1000 to 3000 nM under setting [2].

For the compound `CCN1C(=O)[C@@H](NC(=O)c2cccc(C(F)(F)F)c2)[C@H](c2ccccc2CNC(=O)/C=C/CN(C)C)c2cnn(-c3ccccc3)c21` (racemic) [Compound I-120], the IC50 reads like this: under setting [1], 1000 to 3000 nM; under setting [2], 1000 to 3000 nM.

Consider `CCN1C(=O)[C@H](NC(=O)c2cccc(C(F)(F)F)c2)[C@@H](c2ccccc2NC#N)c2cnn(-c3ccccc3)c21` (racemic) [Compound I-122, ˜{N}—[˜{rac}-(4˜{S},5˜{R})-4-[2-(cyanoamino)phenyl]-7-ethyl-6-oxo-1-phenyl-4,5-dihydropyrazolo[3,4-b]pyridin-5-yl]-3-(trifluoromethyl)benzamide], for which the IC50 under setting [1] is 1000 to 3000 nM and the IC50 under setting [2] fell in the range of 1000 to 3000 nM.

As to `CCN1C(=O)[C@H](NC(=O)c2cccc(C(F)(F)F)c2)[C@@H](c2cccc(NC(=O)C3CCC3)c2)c2c(C)nn(-c3ccccc3)c21` (racemic) [Compound I-123], the IC50 fell in the range of 1000 to 3000 nM under setting [1] and 1000 to 3000 nM under setting [2].

For `CCN1C(=O)[C@H](NC(=O)c2cccc(C(F)(F)F)c2)[C@@H](c2cccc(NC(C)=O)c2)c2c(C)nn(-c3ccccc3)c21` (racemic) [Compound I-124], the IC50 by setting is: under setting [1], 1000 to 3000 nM; under setting [2], 1000 to 3000 nM.

With `CCN1C(=O)[C@@H](NC(=O)c2cccc(C(F)(F)F)c2)[C@H](c2cccc(CNC(=O)C3=CCC3)c2)c2cnn(-c3ccccc3)c21` (racemic) [Compound I-126], the IC50 was 1000 to 3000 nM under setting [1] and 1000 to 3000 nM under setting [2].

As to `C/C=C(/C)S(=O)(=O)Nc1cccc([C@H]2c3c(C)nn(-c4ccccc4)c3N(CC)C(=O)[C@@H]2NC(=O)c2cccc(C(F)(F)F)c2)c1` (racemic) [Compound I-127], the half-inhibitory concentration (IC50) runs as follows: under setting [1], 1000 to 3000 nM; under setting [2], 1000 to 3000 nM.

Regarding `CCN1C(=O)[C@@H](NC(=O)c2cccc(C(F)(F)F)c2)[C@@H](c2ccc(F)c(NC(=O)/C=C/CN(C)C)c2)c2cnn(-c3ccccc3)c21` (racemic) [Compound I-129], the IC50 is, setting by setting: under setting [1], 1000 to 3000 nM; under setting [2], 1000 to 3000 nM.

`C/C=C/S(=O)(=O)Nc1cccc([C@H]2c3c(C)nn(-c4ccccc4)c3N(CC)C(=O)[C@@H]2NC(=O)c2cccc(C(F)(F)F)c2)c1` (racemic) [Compound I-131]: the IC50 reads like this: under setting [1], not above 200 nM; under setting [2], 200 to 1000 nM.
